Like-named read-outs stand apart in the source and are kept apart here.
Legend:
[1] = system: P-gp; test: Rho-123 transport assay (flow cytometry) for P-gp activity with RT and NF-κB inhibitor SN50; assay type: cell-based; settings: Huh-7, 20 μM Rho-123
Procedure: In brief, Huh-7 cells were seeded in a 6-well plate. RT0Gy, RT2Gy, or RT9Gy was applied. At 1 hr or 24 hr after RT, ketoconazole (a P-gp inhibitor), digoxin (a P-gp substrate) and DMSO were added to the corresponding wells and incubated at 37 °C. The existing medium was replaced with 20 μM Rho-123 solution and incubated for 1 hr. Then, the cells were analyzed (10000 cells/sample) to measure Rho-123 accumulation with a FACSCalibur flow cytometer (excitation (Ex) = 515 nm, emission (Em) = 545 nm; Becton Dickinson, San Jose, CA, USA). The data were analyzed with CellQuest software (Becton Dickinson, San Jose, CA, USA).
The peptide SN50 inhibits nuclear translocation of NF-κB. SN50M was used as a negative control. In brief, Huh-7 cells were pretreated with 20 μM SN50 or SN50M (Enzo Life Sciences, Inc., Farmingdale, NY, USA) for 1 hr and were then irradiated. At 1 hr or 24 hr after RT, the existing medium was replaced with 20 μM Rho-123 and incubated for 1 hr. The cells were analyzed (10000 cells/sample) to measure Rho-123 accumulation with a FACSCalibur flow cytometer (Ex = 515 nm, Em = 545 nm; Becton Dickinson, San Jose, CA, USA). The data were analyzed with CellQuest software (Becton Dickinson, San Jose, CA, USA).

[2] = Biliary excretion pharmacokinetics of Rho-123 after RT in freely moving rats; assay type: in vivo, Sprague-Dawley rats; settings: for AUC(0-t) / Cmax / MRT / Tmax / clearance / half-life: Sprague-Dawley, rat, bile, iv, 0.2 mg/kg, biliary excretion; for half-life: read-out: t½
Procedure: A freely moving rat model was designed for the current study[21] (Fig. 1A). Experimental rats were anesthetized with 1 g/mL urethane and 0.1 g/mL α-chloralose (1 mL/kg by intraperitoneal [i.p.] injection), and polyethylene tubes were then implanted in the right jugular vein for intravenous (i.v.) fluid administration. The right jugular vein was catheterized for blood sampling. The catheter traversed the subcutaneous tissue and was fixed in the dorsal neck region. After surgery, the rats were placed in an experimental cage and allowed to recover for 1 day. During the recovery period, the rats were kept warm under a light. Then, the rats were anesthetized and immobilized on a board while undergoing CT for localization of the whole liver (conventional technique, Fig. 1B) or a central area of 1.5 × 1.5 cm (SBRT technique, Fig. 1C). […] An equal volume of methanol was added to 100-μL aliquots of bile and plasma sample specimens for deproteinization. The mixture was vortexed for 15 s and centrifuged at 12000 × g for 10 min.

[3] = RT2Gy, Rho-123 10 min later (concurrent)
[4] = RT2Gy, Rho-123 24 hr later (sequential)
[5] = RT9Gy, Rho-123 10 min later (concurrent)
[6] = RT9Gy, Rho-123 24 hr later (sequential)
[7] = sham RT, Rho-123 0.2 mg/kg i.v., rats

COC(=O)c1ccccc1-c1c2ccc(=N)cc-2oc2cc(N)ccc12 [Rho-123, rhodamine 123]
Rho-123 intensity ([1]; concurrent RT2Gy): 99.2 ± 2.2
Rho-123 intensity ([1]; concurrent RT9Gy): 93.6 ± 3.4
Rho-123 intensity ([1]; sequential RT2Gy): 103.8 ± 0.6
Rho-123 intensity ([1]; sequential RT9Gy): 118.4 ± 0.9
AUC(0-t) ([2]; RT2Gy, Rho-123 0.2 mg/kg i.v. 10 min later (concurrent)): 3170 ng·h/mL
AUC(0-t) ([2]; RT2Gy, Rho-123 0.2 mg/kg i.v. 24 hr later (sequential)): 1920 ng·h/mL
Cmax [2, 3]: 3560 ± 1930 ng/mL
MRT [2, 3]: 66 min
Tmax [2, 3]: 11 min
clearance [2, 3]: 0.92 ± 0.23 mL/min/kg
half-life [2, 3]: 46 ± 13 min
Cmax [2, 4]: 2240 ± 570 ng/mL
MRT [2, 4]: 47 min
Tmax [2, 4]: 9 min
clearance [2, 4]: 1.73 ± 0.61 mL/min/kg
half-life [2, 4]: 32 ± 8 min
AUC(0-t) ([2]; RT9Gy, Rho-123 0.2 mg/kg i.v. 10 min later (concurrent)): 2710 ng·h/mL
AUC(0-t) ([2]; RT9Gy, Rho-123 0.2 mg/kg i.v. 24 hr later (sequential)): 1660 ng·h/mL
Cmax [2, 5]: 2860 ± 830 ng/mL
MRT [2, 5]: 66 min
Tmax [2, 5]: 11 min
clearance [2, 5]: 1.07 ± 0.33 mL/min/kg
half-life [2, 5]: 43 ± 6 min
Cmax [2, 6]: 2070 ± 750 ng/mL
MRT [2, 6]: 50 min
Tmax [2, 6]: 13 min
clearance [2, 6]: 1.91 ± 0.56 mL/min/kg
half-life [2, 6]: 34 ± 9 min
AUC(0-t) [2, 7]: 1880 ng·h/mL
Cmax [2, 7]: 2010 ± 600 ng/mL
MRT [2, 7]: 61 min
Tmax [2, 7]: 14 min
clearance [2, 7]: 1.56 ± 0.3 mL/min/kg
half-life [2, 7]: 42 ± 13 min
Increase in AUC of biliary excretion ([2]; concurrent RT2Gy compared to sham group): 69.0%
Increase in AUC of biliary excretion ([2]; concurrent RT9Gy compared to sham group): 44.2%
Decrease in AUC of biliary excretion ([2]; sequential RT2Gy compared to concurrent RT2Gy): 39.5%
Decrease in AUC of biliary excretion ([2]; sequential RT9Gy compared to concurrent RT9Gy): 38.6%

— publication PMC7293270 (Scientific Reports, 2020)
